Laboratory results from the supplement of paper PMC10307832.

Key:
Test in all cases: relative viability (nuclei count vs DMSO), 5 days (fraction); higher = more cells survive
ChaGo-K-1 = system: ChaGo-K-1
How it was run: (§1)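 A single step with final 0.05% Triton X-100, 1% formaldehyde and 1 ug/ml Hoechst fixed the cells and stained nuclei 5 days after treatment. Lung cancer cell lines in 1536-well plates had been treated by pin tool the day after seeding with one drug alone or a fixed anchor-drug dose plus five library-drug doses (not always all listed) in √10 steps, and nuclei were counted on 4× images. Relative viability is the ratio of nuclei in treated wells to nuclei in vehicle wells, taken as the median of duplicate plates.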

EMC-BAC-2 = system: EMC-BAC-2
How it was run: as §1

EPLC-272H = system: EPLC-272H
How it was run: as §1

H3255 = system: H3255
How it was run: as §1

HCC-44 = system: HCC-44
How it was run: as §1

HCC-827 = system: HCC-827
How it was run: as §1

LCLC-103H = system: LCLC-103H
How it was run: as §1

LCLC-97TM1 = system: LCLC-97TM1
How it was run: as §1

NCI-H1355 = system: NCI-H1355
How it was run: as §1

NCI-H1395 = system: NCI-H1395
How it was run: as §1

NCI-H1651 = system: NCI-H1651
How it was run: as §1

NCI-H1793 = system: NCI-H1793
How it was run: as §1

NCI-H1944 = system: NCI-H1944
How it was run: as §1

NCI-H2023 = system: NCI-H2023
How it was run: as §1

NCI-H2085 = system: NCI-H2085
How it was run: as §1

NCI-H2087 = system: NCI-H2087
How it was run: as §1

NCI-H2405 = system: NCI-H2405
How it was run: as §1

NCI-H322M = system: NCI-H322M
How it was run: as §1

NCI-H520 = system: NCI-H520
How it was run: as §1

NCI-H650 = system: NCI-H650
How it was run: as §1

SK-MES-1 = system: SK-MES-1
How it was run: as §1

UMC-11 = system: UMC-11
How it was run: as §1

## Oc1nc(-c2ccc(C(F)(F)F)cc2)nc2c1CSCC2 [XAV939] + Cc1cc(Nc2cc(N3CCN(C)CC3)nc(Sc3ccc(NC(=O)C4CC4)cc3)n2)n[nH]1 [Tozasertib] (partner 0.1 µM)
ChaGo-K-1; first compound 0.08 µM
  relative viability: 0.216
ChaGo-K-1; first compound 0.253 µM
  relative viability: 0.223
ChaGo-K-1; first compound 0.8 µM
  relative viability: 0.222
ChaGo-K-1; first compound 2.53 µM
  relative viability: 0.209
EMC-BAC-2; first compound 0.08 µM
  relative viability: 0.272
EMC-BAC-2; first compound 0.253 µM
  relative viability: 0.283
EMC-BAC-2; first compound 0.8 µM
  relative viability: 0.259
EMC-BAC-2; first compound 2.53 µM
  relative viability: 0.201
EPLC-272H; first compound 0.08 µM
  relative viability: 0.409
EPLC-272H; first compound 0.253 µM
  relative viability: 0.287
EPLC-272H; first compound 0.8 µM
  relative viability: 0.22
EPLC-272H; first compound 2.53 µM
  relative viability: 0.255
H3255; first compound 0.08 µM
  relative viability: 0.699
H3255; first compound 0.253 µM
  relative viability: 0.597
H3255; first compound 0.8 µM
  relative viability: 0.597
H3255; first compound 2.53 µM
  relative viability: 0.544
HCC-44; first compound 0.08 µM
  relative viability: 1.46
HCC-44; first compound 0.253 µM
  relative viability: 0.799
HCC-44; first compound 0.8 µM
  relative viability: 0.996
HCC-44; first compound 2.53 µM
  relative viability: 0.789
HCC-827; first compound 0.08 µM
  relative viability: 0.423
HCC-827; first compound 0.253 µM
  relative viability: 0.387
HCC-827; first compound 0.8 µM
  relative viability: 0.414
HCC-827; first compound 2.53 µM
  relative viability: 0.384
LCLC-103H; first compound 0.08 µM
  relative viability: 0.576
LCLC-103H; first compound 0.253 µM
  relative viability: 0.402
LCLC-103H; first compound 0.8 µM
  relative viability: 0.444
LCLC-103H; first compound 2.53 µM
  relative viability: 0.504
LCLC-97TM1; first compound 0.08 µM
  relative viability: 0.344
LCLC-97TM1; first compound 0.253 µM
  relative viability: 0.238
LCLC-97TM1; first compound 0.8 µM
  relative viability: 0.186
LCLC-97TM1; first compound 2.53 µM
  relative viability: 0.352
NCI-H1355; first compound 0.08 µM
  relative viability: 0.715
NCI-H1355; first compound 0.253 µM
  relative viability: 0.473
NCI-H1355; first compound 0.8 µM
  relative viability: 0.548
NCI-H1355; first compound 2.53 µM
  relative viability: 0.411
NCI-H1395; first compound 0.08 µM
  relative viability: 0.716
NCI-H1395; first compound 0.253 µM
  relative viability: 0.651
NCI-H1395; first compound 0.8 µM
  relative viability: 0.797
NCI-H1395; first compound 2.53 µM
  relative viability: 0.632
NCI-H1651; first compound 0.08 µM
  relative viability: 0.726
NCI-H1651; first compound 0.253 µM
  relative viability: 0.58
NCI-H1651; first compound 0.8 µM
  relative viability: 0.763
NCI-H1651; first compound 2.53 µM
  relative viability: 0.639
NCI-H1793; first compound 0.08 µM
  relative viability: 0.403
NCI-H1793; first compound 0.253 µM
  relative viability: 0.297
NCI-H1793; first compound 0.8 µM
  relative viability: 0.306
NCI-H1793; first compound 2.53 µM
  relative viability: 0.263
NCI-H1944; first compound 0.08 µM
  relative viability: 0.261
NCI-H1944; first compound 0.253 µM
  relative viability: 0.228
NCI-H1944; first compound 0.8 µM
  relative viability: 0.235
NCI-H1944; first compound 2.53 µM
  relative viability: 0.224
NCI-H2023; first compound 0.08 µM
  relative viability: 0.391
NCI-H2023; first compound 0.253 µM
  relative viability: 0.334
NCI-H2023; first compound 0.8 µM
  relative viability: 0.278
NCI-H2023; first compound 2.53 µM
  relative viability: 0.226
NCI-H2085; first compound 0.08 µM
  relative viability: 0.774
NCI-H2085; first compound 0.253 µM
  relative viability: 0.856
NCI-H2085; first compound 0.8 µM
  relative viability: 0.651
NCI-H2085; first compound 2.53 µM
  relative viability: 0.688
NCI-H2087; first compound 0.08 µM
  relative viability: 0.234
NCI-H2087; first compound 0.253 µM
  relative viability: 0.231
NCI-H2087; first compound 0.8 µM
  relative viability: 0.256
NCI-H2087; first compound 2.53 µM
  relative viability: 0.181
NCI-H2405; first compound 0.08 µM
  relative viability: 0.805
NCI-H2405; first compound 0.253 µM
  relative viability: 0.72
NCI-H2405; first compound 0.8 µM
  relative viability: 0.712
NCI-H2405; first compound 2.53 µM
  relative viability: 0.66
NCI-H322M; first compound 0.08 µM
  relative viability: 0.553
NCI-H322M; first compound 0.253 µM
  relative viability: 0.432
NCI-H322M; first compound 0.8 µM
  relative viability: 0.431
NCI-H322M; first compound 2.53 µM
  relative viability: 0.4
NCI-H520; first compound 0.08 µM
  relative viability: 0.42
NCI-H520; first compound 0.253 µM
  relative viability: 0.439
NCI-H520; first compound 0.8 µM
  relative viability: 0.461
NCI-H520; first compound 2.53 µM
  relative viability: 0.427
NCI-H650; first compound 0.08 µM
  relative viability: 0.883
NCI-H650; first compound 0.253 µM
  relative viability: 0.691
NCI-H650; first compound 0.8 µM
  relative viability: 0.646
NCI-H650; first compound 2.53 µM
  relative viability: 0.611
SK-MES-1; first compound 0.08 µM
  relative viability: 0.956
SK-MES-1; first compound 0.253 µM
  relative viability: 0.816
SK-MES-1; first compound 0.8 µM
  relative viability: 0.807
SK-MES-1; first compound 2.53 µM
  relative viability: 0.768
UMC-11; first compound 0.08 µM
  relative viability: 0.189
UMC-11; first compound 0.253 µM
  relative viability: 0.205
UMC-11; first compound 0.8 µM
  relative viability: 0.19
UMC-11; first compound 2.53 µM
  relative viability: 0.211
